According to patent US7179801B2, “Cephem compounds” (Astellas Pharma Inc., priority 2001, dated 2007):
In brackets after ≈: the same amount, converted by molar mass.

System: Pseudomonas aeruginosa FP 2056
Experiment: In vitro antibacterial activity (MIC), two-fold agar-plate dilution method
Type: cell-based
Settings: FP2056; test strain Pseudomonas aeruginosa FP 2056; heart infusion agar, 37° C. for 20 hours; read-out: MIC (minimal inhibitory concentration)
Experimental: In vitro antibacterial activity was determined by the two-fold agar-plate dilution method as described below. One loopful of an overnight culture of each test strain in Trypticase-soy broth (10^6 viable cells per ml) was streaked-on heart infusion agar (HI-agar) containing graded concentrations of representative test compound, and the minimal inhibitory concentration (MIC) was expressed in μg/ml after incubation at 37° C. for 20 hours.

MIC [µg/mL] | SMILES
1 (≈ 1.61 µM) | Cn1c(N)c(CCCN)c[n+]1CC1=C(C(=O)[O-])N2C(=O)[C@@H](NC(=O)/C(=N\OC(C)(C)C(=O)O)c3nsc(N)n3)[C@H]2SC1 [Compound (a), 7β-[(Z)-2-(5-amino-1,2,4-thiadiazol-3-yl)-2-(1-carboxy-1-methylethoxyimino)acetamido]-3-[3-amino-4-(3-aminopropyl)-2-methyl-1-pyrazolio]methyl-3-cephem-4-carboxylate]
0.5 (≈ 0.821 µM) | Cn1c(N)c(CCN)c[n+]1CC1=C(C(=O)[O-])N2C(=O)[C@@H](NC(=O)/C(=N\OC(C)(C)C(=O)O)c3nsc(N)n3)[C@H]2SC1 [Compound (b), 7β-[(Z)-2-(5-amino-1,2,4-thiadiazol-3-yl)-2-(1-carboxy-1-methylethoxyimino)acetamido]-3-[3-amino-4-(2-aminoethyl)-2-methyl-1-pyrazolio]methyl-3-cephem-4-carboxylate]
